This passage reports Dose/g of tissue results from ChEMBL document CHEMBL1121716, “Potential organ- or tumor-imaging agents. 21. Acyl-labeled esters of cholesterol” (J Med Chem, 1981).

What all share (settings): in vivo
Data set [1] has as its system Rattus norvegicus. The experiment in a line: Accumulation in adrenal cortex was evaluated by distribution of radioactivity at 0.5 h after intravenous administration of oleate 1-14C radiolabeled Cholesteryl Oleate to Rats. The format is ADME, organism-based.
Data set [2] relates to Rattus norvegicus. Briefly: Accumulation in thyroid was evaluated by distribution of radioactivity at 0.5 hr after intravenous administration of oleate 1-14C radiolabeled Cholesteryl Oleate to Rats. The format is ADME, organism-based, Thyroid gland.
The test system of data set [3] is Rattus norvegicus. The experiment in a line: Accumulation in adrenal cortex was evaluated by distribution of radioactivity at 0.5 hr after intravenous administration of 4-14C radiolabeled Cholesteryl Oleate to Rats. It counts as ADME, organism-based.
In data set [4] the test system is Rattus norvegicus. Briefly: Accumulation in liver was evaluated by distribution of radioactivity at 0.5 hr after intravenous administration of 4-14C radiolabeled Cholesteryl Oleate to Rats. The format is ADME, organism-based.
Data set [5] concerns Rattus norvegicus. The experiment in a line: Accumulation in ovary was evaluated by distribution of radioactivity at 0.5 hr after intravenous administration of oleate 1-14C radiolabeled Cholesteryl Oleate to Rats. It counts as ADME, organism-based, Female gonad.
Data set [6] deals with Rattus norvegicus. Briefly: Accumulation in blood was evaluated by distribution of radioactivity at 0.5 hr after intravenous administration of oleate 1-14C radiolabeled Cholesteryl Oleate to Rats. The format is ADME, organism-based.
The subject of data set [7] is Rattus norvegicus. Briefly: Accumulation in ovary was evaluated by distribution of radioactivity at 0.5 hr after intravenous administration of 4-14C radiolabeled Cholesteryl Oleate to Rats. The format is ADME, organism-based, Female gonad.
In data set [8] the test system is Rattus norvegicus. The experiment in a line: Accumulation in thyroid was evaluated by distribution of radioactivity at 0.5 hr after intravenous administration of 4-14C radiolabeled Cholesteryl Oleate to Rats. It counts as ADME, organism-based, Thyroid gland.
Data set [9] has as its system Rattus norvegicus. Briefly: Accumulation in liver was evaluated by distribution of radioactivity at 0.5 hr after intravenous administration of oleate 1-14C radiolabeled Cholesteryl Oleate to Rats. It counts as ADME, organism-based.
The subject of data set [10] is Rattus norvegicus. Briefly: Accumulation in blood was evaluated by distribution of radioactivity at 0.5 hr after intravenous administration of 4-14C radiolabeled Cholesteryl Oleate to Rats. It counts as ADME, organism-based.
Data set [11] deals with Rattus norvegicus. Briefly: Accumulation in spleen was evaluated by distribution of radioactivity at 24 h after intravenous administration of radioiodinated cholesteryl 2,3,5-tri[125I]iodobenzoate to Rats. The format is ADME, organism-based.
Data set [12] concerns Rattus norvegicus. Briefly: Accumulation in ovary was evaluated by distribution of radioactivity at 24 hr after intravenous administration of radioiodinated cholesteryl 2,3,5-tri[125I]iodobenzoate to Rats. The format is ADME, organism-based, Female gonad.
Data set [13] concerns Rattus norvegicus. The experiment in a line: Accumulation in ovary was evaluated by distribution of radioactivity at 0.5 hr after intravenous administration of radioiodinated cholesteryl 2,3,5-tri[125I]iodobenzoate to Rats. It counts as ADME, organism-based, Female gonad.
Data set [14] relates to Rattus norvegicus. The experiment in a line: Accumulation in liver was evaluated by distribution of radioactivity at 0.5 hr after intravenous administration of radioiodinated cholesteryl 2,3,5-tri[125I]iodobenzoate to Rats. It counts as ADME, organism-based.
The test system of data set [15] is Rattus norvegicus. The experiment in a line: Accumulation in thyroid was evaluated by distribution of radioactivity at 0.5 hr after intravenous administration of radioiodinated cholesteryl 2,3,5-tri[125I]iodobenzoate to Rats. It counts as ADME, organism-based, Thyroid gland.
For data set [16], the system named is Rattus norvegicus. Briefly: Accumulation in lung was evaluated by distribution of radioactivity at 0.5 hr after intravenous administration of radioiodinated cholesteryl 2,3,5-tri[125I]iodobenzoate to Rats. It counts as ADME, organism-based.
In data set [17] the test system is Rattus norvegicus. The experiment in a line: Accumulation in adrenal cortex was evaluated by distribution of radioactivity at 0.5 hr after intravenous administration of radioiodinated cholesteryl 2,3,5-tri[125I]iodobenzoate to Rats. The format is ADME, organism-based.
The subject of data set [18] is Rattus norvegicus. Briefly: Accumulation in spleen was evaluated by distribution of radioactivity at 0.5 hr after intravenous administration of radioiodinated cholesteryl 2,3,5-tri[125I]iodobenzoate to Rats. The format is ADME, organism-based.
Data set [19] relates to Rattus norvegicus. Briefly: Accumulation in blood was evaluated by distribution of radioactivity at 24 hr after intravenous administration of radioiodinated cholesteryl 2,3,5-tri[125I]iodobenzoate to Rats. It counts as ADME, organism-based.
Data set [20] concerns Rattus norvegicus. The experiment in a line: Accumulation in blood was evaluated by distribution of radioactivity at 0.5 hr after intravenous administration of radioiodinated cholesteryl 2,3,5-tri[125I]iodobenzoate to Rats. It counts as ADME, organism-based.
Data set [21] deals with Rattus norvegicus. Briefly: Accumulation in adrenal cortex was evaluated by distribution of radioactivity at 24 hr after intravenous administration of radioiodinated cholesteryl 2,3,5-tri[125I]iodobenzoate to Rats. It counts as ADME, organism-based.
The test system of data set [22] is Rattus norvegicus. The experiment in a line: Accumulation in liver was evaluated by distribution of radioactivity at 24 hr after intravenous administration of radioiodinated cholesteryl 2,3,5-tri[125I]iodobenzoate to Rats. The format is ADME, organism-based.
Data set [23] deals with Rattus norvegicus. Briefly: Accumulation in lung was evaluated by distribution of radioactivity at 24 hr after intravenous administration of radioiodinated cholesteryl 2,3,5-tri[125I]iodobenzoate to Rats. The format is ADME, organism-based.
For data set [24], the system named is Rattus norvegicus. The experiment in a line: Accumulation in thyroid was evaluated by distribution of radioactivity at 24 hr after intravenous administration of radioiodinated cholesteryl 2,3,5-tri[125I]iodobenzoate to Rats. The format is ADME, organism-based, Thyroid gland.

With `CCCCCCCC/C=C\CCCCCCCC(=O)OC1CCC2(C)C(=CCC3C2CCC2(C)C(C(C)CCCC(C)C)CCC32)C1` (centres undefined), the Dose/g of tissue was found to be 2.448% in data set [1]; 0.344% in [2]; 3.85% in [3]; 1.569% in [4]; 2.088% in data set [5]; 5.196% in data set [6]. Also, the Dose/g of tissue in data set [7] amounted to 2.815%; in data set [8], 0.446%; in data set [9] it was 1.236%; in [10], 5.78%.

Regarding `CC(C)CCCC(C)C1CCC2C3CC=C4CC(OC(=O)c5cc(I)cc(I)c5I)CCC4(C)C3CCC12C` (centres undefined), the Dose/g of tissue is 1.68% in data set [11]; 16.19% in data set [12]; 6.148% in data set [13]; 2.726% in [14]; 0.47% in [15]; 1.49% in data set [16]. Also, the Dose/g of tissue is on record as 5.455% in [17]; 0.57% in data set [18]; 0.568% in data set [19]; 5.46% in [20]; 9.032% in [21]; 5.106% in data set [22]. In addition, the Dose/g of tissue in [23] worked out at 0.703%; in data set [24] it was 2.63%.
